From the NIST ThermoML archive (doi:10.1021/je400659p)
± gives the expanded uncertainty stated by the source.

Assays:
[1] = xn = mol fraction of the nth substance listed; details: 101 kPa, Liquid, Vibrating tube method
[2] = refractive index (Na D-line) (dimensionless); xn = mol fraction of the nth substance listed; details: 101 kPa, Liquid, Standard Abbe refractometry

CCn1cc[n+](C)c1.F[B-](F)(F)F [1-ethyl-3-methylimidazolium tetrafluoroborate] + C1COCCO1
Details | mass density, [1] [kg/m3] | refractive index, [2]
293.15 K, x1 = 0.3292 | 1171.62 ± 0.6 | –
293.15 K, x1 = 0.4547 | 1203.47 ± 0.73 | –
293.15 K, x1 = 0.4923 | 1211.84 ± 0.77 | –
293.15 K, x1 = 0.6409 | 1240.74 ± 0.96 | –
293.15 K, x1 = 0.6838 | 1246.89 ± 1 | –
293.15 K, x1 = 0.7851 | 1263.5 ± 1.2 | –
293.15 K, x1 = 0.8336 | 1270.18 ± 1.2 | –
293.15 K, x1 = 1 | 1290.63 ± 1.5 | –
298.15 K, x1 = 0.3292 | 1167.26 ± 0.6 | 1.4214 ± 0.0004
298.15 K, x1 = 0.4547 | 1199.31 ± 0.72 | 1.4197 ± 0.0005
298.15 K, x1 = 0.4923 | 1207.73 ± 0.76 | 1.4191 ± 0.0005
298.15 K, x1 = 0.6409 | 1236.77 ± 0.95 | 1.4165 ± 0.0005
298.15 K, x1 = 0.6838 | 1242.94 ± 1 | 1.4157 ± 0.0005
298.15 K, x1 = 0.7851 | 1259.61 ± 1.1 | 1.414 ± 0.0005
298.15 K, x1 = 0.8336 | 1266.32 ± 1.2 | 1.4132 ± 0.0005
298.15 K, x1 = 1 | 1286.82 ± 1.5 | 1.4111 ± 0.0005
303.15 K, x1 = 0.3292 | 1163 ± 0.59 | 1.4195 ± 0.0004
303.15 K, x1 = 0.4547 | 1195.16 ± 0.72 | 1.4181 ± 0.0005
303.15 K, x1 = 0.4923 | 1203.63 ± 0.76 | 1.4176 ± 0.0005
303.15 K, x1 = 0.6409 | 1232.79 ± 0.94 | 1.415 ± 0.0005
303.15 K, x1 = 0.6838 | 1238.89 ± 1 | 1.4143 ± 0.0005
303.15 K, x1 = 0.7851 | 1255.72 ± 1.1 | 1.4125 ± 0.0005
303.15 K, x1 = 0.8336 | 1262.45 ± 1.2 | 1.4118 ± 0.0005
303.15 K, x1 = 1 | 1283.02 ± 1.5 | 1.41 ± 0.0005
313.15 K, x1 = 0.3292 | 1154.24 ± 0.58 | 1.4163 ± 0.0004
313.15 K, x1 = 0.4547 | 1186.92 ± 0.71 | 1.4154 ± 0.0005
313.15 K, x1 = 0.4923 | 1195.48 ± 0.75 | 1.4149 ± 0.0005
313.15 K, x1 = 0.6409 | 1224.92 ± 0.93 | 1.4126 ± 0.0005
313.15 K, x1 = 0.6838 | 1231.17 ± 0.98 | 1.4118 ± 0.0005
313.15 K, x1 = 0.7851 | 1248.01 ± 1.1 | 1.41 ± 0.0005
313.15 K, x1 = 0.8336 | 1254.79 ± 1.2 | 1.4092 ± 0.0005
313.15 K, x1 = 1 | 1275.45 ± 1.4 | 1.4073 ± 0.0005
323.15 K, x1 = 0.3292 | 1145.14 ± 0.57 | 1.4129 ± 0.0004
323.15 K, x1 = 0.4547 | 1178.43 ± 0.69 | 1.4123 ± 0.0005
323.15 K, x1 = 0.4923 | 1187.38 ± 0.74 | 1.4119 ± 0.0005
323.15 K, x1 = 0.6409 | 1217.1 ± 0.92 | 1.4097 ± 0.0005
323.15 K, x1 = 0.6838 | 1223.4 ± 0.97 | 1.409 ± 0.0005
323.15 K, x1 = 0.7851 | 1240.36 ± 1.1 | 1.4074 ± 0.0005
323.15 K, x1 = 0.8336 | 1247.18 ± 1.2 | 1.4067 ± 0.0005
323.15 K, x1 = 1 | 1267.97 ± 1.4 | 1.4051 ± 0.0005
333.15 K, x1 = 0.3292 | 1136.98 ± 0.56 | –
333.15 K, x1 = 0.4547 | 1170.56 ± 0.68 | –
333.15 K, x1 = 0.4923 | 1179.33 ± 0.72 | –
333.15 K, x1 = 0.6409 | 1209.33 ± 0.9 | –
333.15 K, x1 = 0.6838 | 1215.68 ± 0.96 | –
333.15 K, x1 = 0.7851 | 1232.77 ± 1.1 | –
333.15 K, x1 = 0.8336 | 1239.64 ± 1.2 | –
333.15 K, x1 = 1 | 1260.55 ± 1.4 | –
343.15 K, x1 = 0.3292 | 1128.37 ± 0.56 | –
343.15 K, x1 = 0.4547 | 1162.44 ± 0.67 | –
343.15 K, x1 = 0.4923 | 1171.31 ± 0.71 | –
343.15 K, x1 = 0.6409 | 1201.62 ± 0.89 | –
343.15 K, x1 = 0.6838 | 1208.02 ± 0.94 | –
343.15 K, x1 = 0.7851 | 1225.24 ± 1.1 | –
343.15 K, x1 = 0.8336 | 1232.15 ± 1.1 | –
343.15 K, x1 = 1 | 1253.18 ± 1.4 | –
353.15 K, x1 = 0.3292 | 1120.41 ± 0.55 | –
353.15 K, x1 = 0.4547 | 1154.35 ± 0.66 | –
353.15 K, x1 = 0.4923 | 1163.32 ± 0.7 | –
353.15 K, x1 = 0.6409 | 1193.95 ± 0.88 | –
353.15 K, x1 = 0.6838 | 1200.41 ± 0.93 | –
353.15 K, x1 = 0.7851 | 1217.75 ± 1.1 | –
353.15 K, x1 = 0.8336 | 1225.41 ± 1.1 | –
353.15 K, x1 = 1 | 1245.87 ± 1.4 | –

C1COCCO1 [1,4-dioxane] + CCCCn1cc[n+](C)c1.F[B-](F)(F)F
Details | mass density, [1] [kg/m3] | refractive index, [2]
293.15 K, x2 = 0 | 1033.57 ± 0.26 | –
293.15 K, x2 = 0.2559 | 1118.75 ± 0.35 | –
293.15 K, x2 = 0.3956 | 1146.31 ± 0.36 | –
293.15 K, x2 = 0.4988 | 1161.37 ± 0.36 | –
293.15 K, x2 = 0.6 | 1173.1 ± 0.37 | –
293.15 K, x2 = 0.7021 | 1183.04 ± 0.38 | –
293.15 K, x2 = 0.8993 | 1198.09 ± 0.39 | –
298.15 K, x2 = 0 | 1027.92 ± 0.25 | 1.4205 ± 0.0004
298.15 K, x2 = 0.2559 | 1114.31 ± 0.34 | 1.4253 ± 0.0004
298.15 K, x2 = 0.3956 | 1142.23 ± 0.35 | 1.4258 ± 0.0004
298.15 K, x2 = 0.4988 | 1157.44 ± 0.36 | 1.4256 ± 0.0004
298.15 K, x2 = 0.6 | 1169.26 ± 0.37 | 1.4249 ± 0.0004
298.15 K, x2 = 0.7021 | 1179.3 ± 0.38 | 1.4241 ± 0.0004
298.15 K, x2 = 0.8993 | 1194.53 ± 0.39 | 1.4222 ± 0.0004
303.15 K, x2 = 0 | 1022.27 ± 0.25 | 1.4171 ± 0.0004
303.15 K, x2 = 0.2559 | 1109.87 ± 0.34 | 1.4236 ± 0.0004
303.15 K, x2 = 0.3956 | 1138.14 ± 0.35 | 1.4244 ± 0.0004
303.15 K, x2 = 0.4988 | 1153.51 ± 0.36 | 1.4242 ± 0.0004
303.15 K, x2 = 0.6 | 1165.45 ± 0.37 | 1.4235 ± 0.0004
303.15 K, x2 = 0.7021 | 1175.57 ± 0.37 | 1.4225 ± 0.0004
303.15 K, x2 = 0.8993 | 1190.95 ± 0.39 | 1.4207 ± 0.0004
313.15 K, x2 = 0 | 1010.91 ± 0.24 | 1.4112 ± 0.0004
313.15 K, x2 = 0.2559 | 1101.06 ± 0.33 | 1.4196 ± 0.0004
313.15 K, x2 = 0.3956 | 1130.01 ± 0.34 | 1.421 ± 0.0004
313.15 K, x2 = 0.4988 | 1145.69 ± 0.35 | 1.4211 ± 0.0004
313.15 K, x2 = 0.6 | 1157.84 ± 0.36 | 1.4206 ± 0.0004
313.15 K, x2 = 0.7021 | 1168.15 ± 0.37 | 1.4199 ± 0.0004
313.15 K, x2 = 0.8993 | 1183.8 ± 0.38 | 1.4183 ± 0.0004
323.15 K, x2 = 0 | 999.49 ± 0.23 | 1.4063 ± 0.0004
323.15 K, x2 = 0.2559 | 1092.28 ± 0.33 | 1.4161 ± 0.0004
323.15 K, x2 = 0.3956 | 1121.91 ± 0.34 | 1.4179 ± 0.0004
323.15 K, x2 = 0.4988 | 1137.92 ± 0.35 | 1.4181 ± 0.0004
323.15 K, x2 = 0.6 | 1150.29 ± 0.35 | 1.4177 ± 0.0004
323.15 K, x2 = 0.7021 | 1160.77 ± 0.36 | 1.4169 ± 0.0004
323.15 K, x2 = 0.8993 | 1176.68 ± 0.38 | 1.4155 ± 0.0004
333.15 K, x2 = 0 | 987.97 ± 0.23 | –
333.15 K, x2 = 0.2559 | 1083.47 ± 0.32 | –
333.15 K, x2 = 0.3956 | 1113.85 ± 0.33 | –
333.15 K, x2 = 0.4988 | 1130.18 ± 0.34 | –
333.15 K, x2 = 0.6 | 1142.79 ± 0.35 | –
333.15 K, x2 = 0.7021 | 1153.44 ± 0.36 | –
333.15 K, x2 = 0.8993 | 1169.6 ± 0.37 | –
343.15 K, x2 = 0 | 976.37 ± 0.23 | –
343.15 K, x2 = 0.2559 | 1074.65 ± 0.32 | –
343.15 K, x2 = 0.3956 | 1105.8 ± 0.32 | –
343.15 K, x2 = 0.4988 | 1122.47 ± 0.33 | –
343.15 K, x2 = 0.6 | 1135.31 ± 0.34 | –
343.15 K, x2 = 0.7021 | 1146.14 ± 0.35 | –
343.15 K, x2 = 0.8993 | 1162.53 ± 0.36 | –
353.15 K, x2 = 0 | 964.63 ± 0.23 | –
353.15 K, x2 = 0.2559 | 1065.8 ± 0.32 | –
353.15 K, x2 = 0.3956 | 1097.77 ± 0.32 | –
353.15 K, x2 = 0.4988 | 1114.8 ± 0.33 | –
353.15 K, x2 = 0.6 | 1127.87 ± 0.34 | –
353.15 K, x2 = 0.7021 | 1138.89 ± 0.34 | –
353.15 K, x2 = 0.8993 | 1155.57 ± 0.36 | –
